The values that follow come from patent publication US20260200919A1, “SUBSTITUTED AMINOPYRIDINE COMPOUNDS AND METHODS OF TREATING DISEASE USING SAME” (Atavistik Bio, Inc., priority 2023, published 2026).

The target of experiment [1] is T1, human recombinant kinase full-length AKT1 E17K (Homo sapiens, UniProt P31749, E17K).
T1 construct: Purified human recombinant kinase full-length AKT1 E17K was expressed in insect cells; made in house; host or cells: insect cells
In words: AKT1 E17K kinase assay (TR-FRET, Lance). It is filed as biochemical. The conditions noted are these: 0.6 nM AKT1 E17K, 50 nM Ulight-CREBtide, either 50 μM ATP or 2 mM ATP (not specified which), 60 min at RT. The protocol: AKT1 E17K kinase assay: Inhibitory effects of compounds on AKT1 E17K were undertaken in a 10-pt dose response kinase activity assay measuring phospho-peptide product formation based on TR-FRET signal as described in the following paragraph.
(§1) Purified human recombinant kinase full-length AKT1 E17K was expressed in insect cells and activated in vitro by PDPK1. Ulight™-CREBtide (PerkinElmer, catalog number TRF0107) was used as the peptide substrate. The reaction buffer consisted of 50 mM HEPES pH 7.5, 10 mM MgCl2, 0.01% Triton X-100, 0.01% BSA, 2 mM DTT, 0.6 nM AKT1 E17K, 50 nM. Ulight™ CREBtide and either 50 μM ATP or 2 mM ATP. The compound solution was prepared as 10 mM DMSO stock. […] Final DMSO concentration in the assay was 1%. […] The reaction was stopped after 60 min of incubation at RT by the addition of 10 μL of Detection Mix (PerkinElmer, #CR97-100) consisting of Europium-anti-phospho-CREB (Ser133) (Perkin Elmer, catalog numberTRF0200). Incubation with the detection mix for a further 60 min allowed binding of antibody to the phospho-Ulight™ CREBtide. The fluorescence emissions at 620 nm and 665 nm after excitation at […] was measured using Envision reader. The ratio of the emissions at 665 nm and at 620 nm provided the measure for the amount of phosphorylated CREBtide product of AKT1 E17K kinase activity.

Experiment [2] concerns the target T2, human recombinant kinase full-length wildtype AKT1 (Homo sapiens, UniProt P31749).
T2 construct: Purified human recombinant kinase full-length wildtype AKT1 was expressed in insect cells; made in house; host or cells: insect cells
In words: AKT1 kinase assay (wildtype, TR-FRET, Lance). Particulars: 0.6 nM wildtype AKT1, 50 nM Ulight-CREBtide, either 50 μM ATP or 2 mM ATP (not specified which), 60 min at RT. It is filed as biochemical. The protocol:
AKT1 kinase assay: Inhibitory effects of compounds on wildtype AKT1 were undertaken in a 10-pt dose response kinase activity assay measuring phospho-peptide product formation based on TR-FRET signal as described in the following paragraph.
as §1, with “full-length wildtype” for “full-length”, “AKT1” for “AKT1 E17K”, “Ulight™—CREBtide” for “Ulight™-CREBtide”, “AKT1,” for “AKT1 E17K,”, “nM Ulight™-CREBtide” for “nM. Ulight™ CREBtide”

T1 sequence (P31749 whole entry E17K): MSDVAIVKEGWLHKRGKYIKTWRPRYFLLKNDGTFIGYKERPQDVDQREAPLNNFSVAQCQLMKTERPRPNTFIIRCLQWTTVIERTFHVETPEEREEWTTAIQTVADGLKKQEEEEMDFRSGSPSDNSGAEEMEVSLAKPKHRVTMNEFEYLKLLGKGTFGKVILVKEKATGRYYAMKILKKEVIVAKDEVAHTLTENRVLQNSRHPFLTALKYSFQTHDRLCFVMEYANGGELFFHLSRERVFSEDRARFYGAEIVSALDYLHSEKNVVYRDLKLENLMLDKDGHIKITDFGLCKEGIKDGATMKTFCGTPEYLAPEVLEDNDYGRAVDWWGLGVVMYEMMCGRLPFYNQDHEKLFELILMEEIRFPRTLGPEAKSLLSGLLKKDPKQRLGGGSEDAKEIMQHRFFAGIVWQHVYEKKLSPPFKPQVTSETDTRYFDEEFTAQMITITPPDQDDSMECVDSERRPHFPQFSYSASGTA
T2 sequence (P31749 whole entry): as the sequence (P31749 whole entry E17K) above, with K17E counted along it

With `Nc1ncccc1-c1nc2ccc(-c3ccccc3)nc2n1-c1ccc(C2CN(C(=O)c3ccc(C(=O)O)cc3F)C2)cc1` [Compound 76, 4-(3-(4-(2-(2-aminopyridin-3-yl)-5-phenyl-3H-imidazo[4,5-b]pyridin-3-yl)phenyl)azetidine-1-carbonyl)-3-fluorobenzoic acid], the IC50 in experiment [1] was less than 50 nM; in experiment [2], less than 500 nM.

Consider `Nc1ncccc1-c1nc2cc(-c3cccnc3)cnc2n1-c1ccc(CNC(=O)c2cccc(CCC(=O)O)c2)cc1` [Compound 94, 3-(3-((4-(2-(2-aminopyridin-3-yl)-6-(pyridin-3-yl)-3H-imidazo[4,5-b]pyridin-3-yl)benzyl)carbamoyl)phenyl) propanoic acid], for which the results for the half-inhibitory concentration (IC50) in experiment [1] and in experiment [2] were greater than 500 nM and less than 500 nM, respectively.

With `Nc1ncccc1-c1nc2ccc(-c3ccccc3)nc2n1-c1ccc(CNC(=O)c2cccc(CC(=O)O)c2)cc1` [Compound 32, 2-(3-((4-(2-(2-aminopyridin-3-yl)-5-phenyl-3H-imidazo[4,5-b]pyridin-3-yl)benzyl)carbamoyl)phenyl)acetic acid], the IC50 is 50 to 200 nM in experiment [1] and less than 500 nM in experiment [2].

As to `Cc1cc(NC(=O)c2ccc(-n3c(-c4cccnc4N)nc4ccc(-c5ccccc5)nc43)cn2)ccc1C(=O)O` [Compound 177, 4-(5-(2-(2-aminopyridin-3-yl)-5-phenyl-3H-imidazo[4,5-b]pyridin-3-yl)picolinamido)-2-methylbenzoic acid], the IC50 in experiment [1] is 200 to 500 nM; in experiment [2], less than 500 nM.

As for `Nc1ncccc1-c1nc2ccc(-c3ccccc3)nc2n1-c1ccc(NC(=O)c2cccc(C(=O)O)c2)cc1` [Compound 54, 3-[[4-[2-(2-amino-3-pyridyl)-5-phenyl-imidazo[4,5-b]pyridin-3-yl]phenyl]carbamoyl]benzoic acid], the IC50 in experiment [1] is less than 50 nM; in experiment [2] it was less than 500 nM.

With `Nc1ncccc1-c1nc2ccc(-c3ccccc3)nc2n1-c1ccc(C2CN(C(=O)c3ccc(C(=O)O)cc3)C2)cc1` [Compound 70, 4-(3-(4-(2-(2-aminopyridin-3-yl)-5-phenyl-3H-imidazo[4,5-b]pyridin-3-yl)phenyl)azetidine-1-carbonyl)benzoic acid], the IC50 was less than 50 nM in experiment [1] and less than 500 nM in experiment [2].

`Nc1ncccc1-c1nc2ccc(C(F)(F)F)cc2n1-c1ccc(CNC(=O)c2cccc(C(=O)O)c2F)cc1` [Compound 106, 3-((4-(2-(2-aminopyridin-3-yl)-6-(trifluoromethyl)-1H-benzo[d]imidazol-1-yl)benzyl)carbamoyl)-2-fluorobenzoic acid]: the 50% inhibitory concentration (IC50) in experiment [1] and in experiment [2] was greater than 500 nM in each case.

Consider `Nc1ncccc1-c1nc2ccccc2n1-c1ccc(CNC(=O)c2cccc(CC(=O)O)c2)cc1` [Compound 108, 2-(3-((4-(2-(2-aminopyridin-3-yl)-1H-benzo[d]imidazol-1-yl)benzyl)carbamoyl)phenyl) acetic acid], for which the 50% inhibitory concentration (IC50) in experiment [1] and in experiment [2] was greater than 500 nM each time.

In the case of `Nc1ncccc1-c1nc2cc(-c3ccccc3)cnc2n1-c1ccc(CNC(=O)c2cccc(CC(=O)O)c2)cc1` [Compound 82, 2-(3-((4-(2-(2-aminopyridin-3-yl)-6-phenyl-3H-imidazo[4,5-b]pyridin-3-yl)benzyl)carbamoyl)phenyl) acetic acid], the values for the IC50 in experiment [1] and in experiment [2] were 200 to 500 nM and less than 500 nM, respectively.

Turning to `CC(C(=O)O)c1cccc(C(=O)NCc2ccc(-n3c(-c4cccnc4N)nc4ccc(-c5ccccc5)nc43)cc2)c1F` (stereo not shown) [Compound 37, 2-(3-((4-(2-(2-aminopyridin-3-yl)-5-phenyl-3H-imidazo[4,5-b]pyridin-3-yl)benzyl)carbamoyl)-2-fluorophenyl) propanoic acid], the half-maximal inhibitory concentration (IC50) in experiment [1] was 200 to 500 nM; in experiment [2], less than 500 nM.

As to `Nc1ncccc1-c1nc2ccc(-c3ccccc3)nc2n1-c1ccc(CNC(=O)c2cccc(S(=O)(=O)O)c2F)cc1` [Compound 9, 3-((4-(2-(2-aminopyridin-3-yl)-5-phenyl-3H-imidazo[4,5-b]pyridin-3-yl)benzyl)carbamoyl)-2-fluorobenzenesulfonic acid], the IC50 in experiment [1] is 200 to 500 nM; in experiment [2], less than 500 nM.

`COc1ccc2nc(-c3cccnc3N)n(-c3ccc(CNC(=O)c4cccc(C(=O)O)c4F)cc3)c2c1` [Compound 103, 3-((4-(2-(2-aminopyridin-3-yl)-6-methoxy-1H-benzo[d]imidazol-1-yl)benzyl)carbamoyl)-2-fluorobenzoic acid]: the IC50 in experiment [1] and in experiment [2] was greater than 500 nM each time.

For the molecule `CCNC(=O)Cc1cccc(C(=O)NCc2ccc(-n3c(-c4cccnc4N)nc4ccc(-c5ccccc5)nc43)cc2)c1` [Compound 44, N-(4-(2-(2-aminopyridin-3-yl)-5-phenyl-3H-imidazo[4,5-b]pyridin-3-yl)benzyl)-3-(2-(ethylamino)-2-oxoethyl)benzamide], the figures for the concentration for half-maximal inhibition (IC50) in experiment [1] and in experiment [2] were greater than 500 nM and less than 500 nM, respectively.

As for `Nc1ncccc1-c1nc2ccc(-c3ccccc3)nc2n1-c1ccc(NCc2ccc(C(=O)O)cc2)cc1` [Compound 58, 4-[[4-[2-(2-amino-3-pyridyl)-5-phenyl-imidazo[4,5-b]pyridin-3-yl]anilino]methyl]benzoic acid], the half-inhibitory concentration (IC50) in experiment [1] was 50 to 200 nM; in experiment [2], less than 500 nM.

As for `Nc1ncccc1-c1nc2ccc(-c3cccnc3)nc2n1-c1ccc(CNC(=O)c2cccc(CC(=O)O)c2)cc1` [Compound 96, 2-(3-((4-(2-(2-aminopyridin-3-yl)-5-(pyridin-3-yl)-3H-imidazo[4,5-b]pyridin-3-yl)benzyl)carbamoyl)phenyl) acetic acid], the IC50 in experiment [1] was 200 to 500 nM; in experiment [2] it was less than 500 nM.

For `CC(c1ccc(C(=O)O)cc1)N1CCCC(c2ccc(-n3c(-c4cccnc4N)nc4ccc(-c5ccccc5)nc43)cc2)C1` (stereo not shown) [Compound 170, 4-(1-(3-(4-(2-(2-aminopyridin-3-yl)-5-phenyl-3H-imidazo[4,5-b]pyridin-3-yl)phenyl)piperidin-1-yl)ethyl)benzoic acid], the IC50 is greater than 500 nM in experiment [1] and less than 500 nM in experiment [2].

Take `COC(=O)c1ccc(C(=O)N2CC(c3ccc(-n4c(-c5cccnc5N)nc5ccc(-c6ccccc6)nc54)cc3)C2)cc1` [Compound 69, methyl 4-(3-(4-(2-(2-aminopyridin-3-yl)-5-phenyl-3H-imidazo[4,5-b]pyridin-3-yl)phenyl)azetidine-1-carbonyl)benzoate]: the values for the IC50 in experiment [1] and in experiment [2] were greater than 500 nM and less than 500 nM, respectively.

For `Nc1ncccc1-c1nc2ccc(-c3ccccc3)nc2n1-c1ccc(NC(=O)c2cccc(CC(=O)O)c2)cc1` [Compound 56, 2-(3-((4-(2-(2-aminopyridin-3-yl)-5-phenyl-3H-imidazo[4,5-b]pyridin-3-yl)phenyl)carbamoyl)phenyl)acetic acid], the results for the half-maximal inhibitory concentration (IC50) in experiment [1] and in experiment [2] were less than 50 nM and less than 500 nM, respectively.

As for `Nc1ncccc1-c1nc2ccc(-c3ccccc3)nc2n1-c1ccc(C(=O)Nc2ccc(C(=O)O)cc2F)cc1` [Compound 180, 4-(4-(2-(2-aminopyridin-3-yl)-5-phenyl-3H-imidazo[4,5-b]pyridin-3-yl)benzamido)-3-fluorobenzoic acid], the IC50 in experiment [1] was less than 50 nM; in experiment [2], less than 500 nM.

On to `Nc1ncccc1-c1nc2ccc(-c3ccccc3)nc2n1-c1ccc(NC(=O)c2ccc(C(=O)O)nc2)nc1` [Compound 151], for which the values for the IC50 in experiment [1] and in experiment [2] were less than 50 nM and less than 500 nM, respectively.
